Data from patent publication US12534469B2 (CHILDREN'S HOSPITAL MEDICAL CENTER, priority 2020, dated 2026).
pKd: −log10 of the molar value. Like-named read-outs stand apart in the source and are kept apart here.

Columns and labels:
FLT3 ITD = molecular target: T1, FLT3 ITD (Homo sapiens, UniProt P36888, ITD); experiment: DiscoverX KINOMEscan competition binding assay, FLT3 ITD
T1 sequence (P36888 564-993): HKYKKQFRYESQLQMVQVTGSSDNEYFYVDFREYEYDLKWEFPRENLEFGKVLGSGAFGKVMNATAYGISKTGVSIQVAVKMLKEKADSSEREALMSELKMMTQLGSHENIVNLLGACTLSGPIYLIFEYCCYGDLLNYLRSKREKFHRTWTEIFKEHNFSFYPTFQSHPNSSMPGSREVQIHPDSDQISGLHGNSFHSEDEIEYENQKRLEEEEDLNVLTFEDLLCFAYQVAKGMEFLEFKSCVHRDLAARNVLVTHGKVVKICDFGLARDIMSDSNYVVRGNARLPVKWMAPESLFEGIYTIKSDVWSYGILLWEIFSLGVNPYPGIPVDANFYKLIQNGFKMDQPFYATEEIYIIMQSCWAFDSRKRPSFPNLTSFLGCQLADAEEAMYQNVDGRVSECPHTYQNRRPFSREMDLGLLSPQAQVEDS
Text: (§1) Kinase binding data were obtained for various exemplary compounds prepared according to Examples 1-25 using the DiscoverX KINOMEscan® active site-directed competition binding site-directed assay protocol described below. […] As a result, the data report thermodynamic interaction affinities (Kd values), rather than IC50 values that are dependent on ATP concentrations. The assay uses a DNA-tagged version of the protein kinase, and an immobilized ligand bound to a solid support. Compounds that directly or indirectly prevent kinase binding to the immobilized ligand reduce the amount of kinase captured on the solid support, which is detected using an ultra-sensitive qPCR method. Affinity constants reported from the assay have been reported to be independent of the immobilized ligand used that is coupled to the solid support (See supplemental information in Fabian, M. A. et. al., (2005) Nat. Biotechnol. 23, 329-336; Wodicka, L. M. et. al., (2010) Chem. Biol. 17, 1241-1249.)
(§2) Kinase-tagged T7 phage strains were prepared in an E. coli host derived from the BL21 strain. E. coli were grown to log-phase and infected with T7 phage and incubated with shaking at 32° C. until lysis. The lysates were centrifuged and filtered to remove cell debris. The remaining kinases were produced in HEK-293 cells and subsequently tagged with DNA for qPCR detection. […] The liganded beads were blocked with excess biotin and washed with blocking buffer (SeaBlock (Pierce), 1% BSA, 0.05% Tween 20, 1 mM DTT) to remove unbound ligand and to reduce non-specific binding. […] Test compounds were prepared as 111× stocks in 100% DMSO. Kds were determined using an 11-point 3-fold compound dilution series with three DMSO control points. […] The compounds were then diluted directly into the assays such that the final concentration of DMSO was 0.9%. All reactions were performed in polypropylene 384-well plates. Each was a final volume of 0.02 mL. […] The kinase concentration in the eluates was measured by qPCR.
(§3) Binding constants (Kds) were calculated with a standard dose-response curve using the Hill equation. […]

FLT3 = molecular target: T2, FLT3 (Homo sapiens, UniProt P36888); experiment: DiscoverX KINOMEscan competition binding assay, FLT3
T2 construct: using full-length kinases in the presence of cellular concentrations of ATP in live, uncompromised cells; assay by Reaction Biology; host or cells: HEK-293 (ATCC), transient transfection
T2 sequence (P36888 27-993): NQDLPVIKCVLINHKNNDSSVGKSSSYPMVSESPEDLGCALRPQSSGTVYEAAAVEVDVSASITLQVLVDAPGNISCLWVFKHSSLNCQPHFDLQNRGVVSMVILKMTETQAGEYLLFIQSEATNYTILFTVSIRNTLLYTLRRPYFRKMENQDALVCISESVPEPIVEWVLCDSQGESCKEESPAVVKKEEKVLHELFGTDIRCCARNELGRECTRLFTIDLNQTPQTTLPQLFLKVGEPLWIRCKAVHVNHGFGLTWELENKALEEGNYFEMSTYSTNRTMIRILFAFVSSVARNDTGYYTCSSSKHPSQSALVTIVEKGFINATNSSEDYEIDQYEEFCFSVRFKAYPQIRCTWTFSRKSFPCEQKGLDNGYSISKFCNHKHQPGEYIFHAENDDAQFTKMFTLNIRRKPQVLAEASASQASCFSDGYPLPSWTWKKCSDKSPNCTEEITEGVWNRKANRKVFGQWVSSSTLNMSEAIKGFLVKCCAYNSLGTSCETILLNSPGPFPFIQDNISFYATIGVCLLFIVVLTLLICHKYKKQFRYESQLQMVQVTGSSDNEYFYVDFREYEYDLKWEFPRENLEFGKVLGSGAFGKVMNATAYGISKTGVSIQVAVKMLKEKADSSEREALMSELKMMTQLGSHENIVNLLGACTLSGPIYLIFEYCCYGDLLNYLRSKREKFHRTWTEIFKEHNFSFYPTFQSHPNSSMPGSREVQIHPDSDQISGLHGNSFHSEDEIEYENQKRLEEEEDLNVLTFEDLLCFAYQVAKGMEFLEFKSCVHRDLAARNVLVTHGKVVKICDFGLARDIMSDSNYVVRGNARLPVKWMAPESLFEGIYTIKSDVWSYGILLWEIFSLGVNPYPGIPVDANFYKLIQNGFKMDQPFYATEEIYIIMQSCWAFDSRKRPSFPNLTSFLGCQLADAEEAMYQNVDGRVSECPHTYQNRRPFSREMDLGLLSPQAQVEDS
Text: as §1, §2, §3

FLT3 Autoinh. = molecular target: T3, FLT3 Autoinh. (Homo sapiens, UniProt P36888); experiment: DiscoverX KINOMEscan competition binding assay, FLT3 Autoinh.
T3 construct: purchased DiscoverX (KINOMEscan); host or cells: E. coli (T7 phage) or HEK-293
T3 sequence (P36888 564-993 limits assumed): T1 sequence (P36888 564-993)
Text: as §1, §2, §3

Row | SMILES | pKd (FLT3 ITD; read-out: FLT3 ITD Kd) | pKd (FLT3) | pKd (FLT3 Autoinh.) | pKd (FLT3 ITD)
1 | COc1cc2ncc(-c3cccc(N[C@H]4CNCC[C@@H]4F)n3)n2nc1C1CC1 [Compound 102, 6-(6-cyclopropyl-7-methoxyimidazo[1,2-b]pyridazin-3-yl)-N-((3S,4S)-4-fluoropiperidin-3-yl)pyridin-2-amine] | 9.27 | 9.89 | 7.77 | –
2 | COc1cc2ncc(-c3cccc(N[C@H]4CNC[C@@H]4F)n3)n2nc1C1CC1 [Compound 96, 6-(6-cyclopropyl-7-methoxyimidazo[1,2-b]pyridazin-3-yl)-N-((3S,4S)-4-fluoropyrrolidin-3-yl)pyridin-2-amine] | – | 9.51 | 7.96 | 9.00
3 | COc1cc2ncc(-c3cccc(N[C@@H]4CCNC4)n3)n2nc1C1CC1 [Compound 97, (R)-6-(6-cyclopropyl-7-methoxyimidazo[1,2-b]pyridazin-3-yl)-N-(pyrrolidin-3-yl)pyridin-2-amine] | 9.72 | 9.72 | 7.89 | –
